The values that follow come from paper PMC8405639, “2-Carba-lysophosphatidic acid is a novel β-lysophosphatidic acid analogue with high potential for lysophosphatidic acid receptor activation and autotaxin inhibition” (Scientific Reports, 2021).

Series [1] has as its system extracellular signal-regulated kinase (ERK) phosphorylation. Description: Western blot analysis of phosphorylated ERK in HeLa cells. In kind it is cell-based. The following applies: HeLa cells, 10 µM, 5 min, 37 °C, western blot. As for the experimental part:
Figure 3 Effects of 2-carba-lysophosphatidic acid (2carbaLPA) on the phosphorylation of the extracellular signal-regulated kinase (ERK) protein. HeLa cells were preincubated with 10 µM Ki16425 for 30 min at 37 °C and then incubated with 10 µM 2carbaLPA, lysophosphatidic acid (LPA) 18:1, or vehicle for 5 min at 37 °C. Protein levels of phosphorylated ERK, total ERK, and α-tubulin were determined by western blot analysis. The full-length blots are shown in the Supplementary Fig. S2.
HeLa cells were obtained from RIKEN RBC Cell Bank (Tsukuba, Japan). […] Cells were harvested using 0.125 M Tris–HCl (pH 6.8) supplemented with 4% sodium dodecyl sulphate (SDS), 20% glycerol, 10% 2-mercaptoethanol, and 0.01% bromophenol blue. Proteins were separated by SDS–polyacrylamide gel electrophoresis, and the proteins were transferred onto an Immobilon-P Transfer Membrane (Millipore, Burlington, MA, USA). The membrane was incubated with primary antibodies: anti-phospho-ERK (pERK), anti-ERK, and anti-tubulin (all at 1:1,000 dilution, Cell Signaling Technology, Danvers, MA, USA). Next, after washing, the membrane was treated with horseradish peroxidase-conjugated anti-rabbit IgG (1:1000 dilution; Cell Signaling Technology). Immunodetection was performed using an enhanced chemiluminescence system (EzWestLumi plus, ATTO Corporation, Tokyo, Japan) and ImageQuant LAS 4000 (GE healthcare, Buckinghamshire, UK).

On the set-up of series [2]: method as in PMID 32298781. Conditions: acidic conditions ref 16; cited from earlier work.
Series [3] in a line: cPA analogue stability in the 293A cell medium. Format: in vitro ADME. Conditions: 10 µM, 37 °C, 293A (HEK) cell medium. As for the experimental part:
Supplementary Figure S3. Cyclic phosphatidic acid (cPA) analogue stability in the HEK cell medium. Each cPA analogue (final concentration: 10 µM) was incubated with the HEK cell medium for 1 h at 37 °C. The remaining cPA analogue was quantified using liquid chromatography with tandem mass spectrometry (LC-QqQ) and calculated based on the percentage (%) ratio of the final concentration after incubation to the initial concentration. Data are represented as mean ± standard deviation (n = 3 samples).
293A cells were prepared in Hank’s balanced salt solution (HBSS) in 96-well plates. […] After incubation for 1 h at 37 ℃, 80 µL of the supernatant was collected and mixed with 320 µL of acidic methanol, including LPA 17:0 and cPA 17:0 (final concentration: 0.2 µM each; Avanti Polar Lipids, Alabaster, AL, USA).

A further series has as its system LPA3. The following applies: Ca2+ mobilization, RH7777 and CHO cells, less than 2 min incubation ref 17; cited from earlier work. Background: Calcium flux is commonly read through the fluorescence of an indicator in the cells.
The next series has as its system LPA4. Conditions: Ca2+ mobilization, RH7777 and CHO cells, less than 2 min incubation ref 17; cited from earlier work.
A short description of series [4]: Degradation under acidic conditions (artificial gastric juice). Format: physicochemical. Conditions: artificial gastric juice pH 1.2, 2 h, 37 °C. Here is the method: 2ccPA was dissolved in artificial gastric juice (2 g NaCl and 12 M HCl 7 mL/1000 mL water at pH 1.2) at a final concentration of 1 mg/mL and incubated for 2 h at 37 °C. Lipid fraction was extracted by 4 volumes of chloroform/methanol (2:1, v/v) and separated by TLC as per previously reported. Extraction from the silica powder of TLC was performed by addition of 8 mL of chloroform/methanol (1:9, v/v) and it was repeated three times. After filtration (0.2 μm Captiva Premium syringe PTFE filter, Agilent Technologies, Santa Clara, CA, USA), the sample was diluted 100-fold with 5 mM ammonium formate in methanol/water (95:5, v/v) and subjected to QqTOF. The 3ccPA degradation compound was also prepared using the same method. The purity of the degradation compound was confirmed to be more than 95% by TLC, QqTOF, and LC-QqQ. Quantification was performed by weighing the purified sample after dried more than 24 h in the desiccator equipped with a vacuum pump.

For `CCCCCCCC/C=C\CCCCCCCC(=O)OCC(CO)CP(=O)(O)O` (stereo not drawn) [2carbaLPA 18:1, 2-carba-lysophosphatidic acid], the “ERK phosphorylation (activation)” value in series [1] is reported as “activated ERK”.

Consider `CCCCCCCC/C=C\CCCCCCCC(=O)OCC1COP(=O)(O)C1` (stereo not drawn) [2ccPA 18:1, 2-carba-cyclic phosphatidic acid], for which the “Degradation under acidic conditions” value in series [2] is reported as “degraded under acidic conditions”.

With `CCCCCCCC/C=C\CCCCCCCC(=O)OC[C@@H](O)CCP(=O)(O)O` [3carba LPA 18:1, 3-carba-lysophosphatidic acid], the “Stability during 1 h” value in series [3] is on record as “mostly stable”. Moreover, the “Activity relative to LPA (times weaker), LPA3” value in the series with LPA3 was “more than 10 times”. For the same compound, the “Activity relative to LPA (times weaker), LPA4” value in the series on LPA4 is reported as “more than 10 times”.

Consider `CCCCCCCC/C=C\CCCCCCCC(=O)OC[C@@H]1CCP(=O)(O)O1` [3ccPA 18:1, 3-carba-cyclic phosphatidic acid], for which the “Conversion under acidic condition” value in series [4] is listed as “converted to the corresponding 3-carba-lysophosphatidic acid”.
